Where a name gives a salt, the structure may show the parent alone.
melting point	SMILES
111 to 113 °C	Cc1cc(N)nc(CCCCNC(=O)/C=C/c2ccc3c(c2)OCO3)c1.O=C(O)/C=C/C(=O)O [Example 31, (E)-N-[4-(6-amino-4-methyl-2-pyridinyl)butyl]-3-(1,3-benzodioxole-5-yl)-2-propenamide fumarate]
163 to 165 °C	Cc1cc(N)nc(CCCCNC/C=C/c2ccccc2)c1.O=C(O)/C=C/C(=O)O [Example 30, N-[4-(6-amino-4-methyl-2-pyridinyl)butyl]-N-[(E)-3-phenyl-2-propenyl]amine fumarate]
60 to 62 °C	COc1cc(C=CCNCCCCc2cc(C)cc(N)n2)ccc1O (as salt: hydrochloride) [Example 26, 6-amino-N-[13-(4-hydroxy-3-metboxy-phenyl)-2-propenyl]4-methyl-2-pyridinebutanamine hydrochloride]
224 to 226 °C	Cc1cc(N)nc(CCCCNCc2ccc3c(c2)OCO3)c1.O=C(O)/C=C/C(=O)O [Example 29, N-[4-(6-amino-4-methyl-2-pyridinyl)butyl]-N-(1,3-benzodioxole-5-ylmethyl)amine fumarate]

Continued, compound first:

SMILES	melting point
Cc1c(C)c2c(c(C)c1O)CCC(C)(C(=O)N1CCN(CCCCc3ccc(N)nc3)CC1)O2.Cl (centres unmarked)	221 to 223 °C
Cc1cc(N)nc(CCCCNC(=O)C2(C)CCc3c(C)c(O)c(C)c(C)c3O2)c1.O=C(O)/C=C/C(=O)O (centres unmarked)	131 to 136 °C
Cc1c(C)c2c(c(C)c1O)CCC(C)(C(=O)N1CCN(CCC#Cc3ccc(N)nc3)CC1)O2.Cl (centres unmarked)	210 to 212 °C
Cc1cc(N)nc(CCCCNC(=O)c2ccc3c(c2)OCO3)c1.Cl [Example 23, N-[(6-amino-4-methyl-2-pyridinyl)butyl]-1,3-benzodioxole-5-carboxamide hydrochloride]	176 to 178 °C

— patent US6762176B1, “2-aminopyridine derivatives, their use as medicines and pharmaceutical compositions containing them” (Societe de Consells de Recherches et D'Applications …, priority 1998, dated 2004)
